Experimental data taken from paper PMC6706418, “Systemically Administered Plant Recombinant Holo-Intrinsic Factor Targets the Liver and is not Affected by Endogenous B12 levels” (Scientific Reports, 2019).

Target: T1, human gastric Intrinsic factor (IF; hrIF) (Homo sapiens, UniProt P27352)
T1 construct: gene CBLIF; recombinant apo-IF expressed in Arabidopsis thaliana (Xeragenx LLC); secreted glycoprotein ~50 kDa with plant glycosylation
Experiment: radiometric chase assay with […]-B12
Type: binding
Conditions: competition against 57Co-B12; B12-desferrioxamine conjugate chelated to cold 91Zr (pH 7-7.5)

T1 sequence (P27352 19-417): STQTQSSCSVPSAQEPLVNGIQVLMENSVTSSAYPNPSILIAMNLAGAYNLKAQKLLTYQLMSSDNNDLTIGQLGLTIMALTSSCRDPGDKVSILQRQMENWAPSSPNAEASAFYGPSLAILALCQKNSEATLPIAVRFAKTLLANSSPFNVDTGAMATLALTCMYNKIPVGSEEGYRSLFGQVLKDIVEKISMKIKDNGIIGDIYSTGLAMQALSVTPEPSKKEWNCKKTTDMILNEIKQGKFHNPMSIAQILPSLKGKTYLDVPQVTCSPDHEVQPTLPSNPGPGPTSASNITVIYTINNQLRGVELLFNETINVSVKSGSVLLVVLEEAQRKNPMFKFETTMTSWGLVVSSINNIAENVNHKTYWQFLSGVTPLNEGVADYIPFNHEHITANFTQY

Kd: 1.57 nM
Substance: [^91Zr]-B12
